Where a name gives a salt, the structure may show the parent alone. Bounds are passed on as bounds.

In the first test the target is T1, H1 receptor (Cavia porcellus, UniProt P31389).
T1 construct: Strips of guinea pig ileum, 2 cm in length, were set up in an isolated organ bath; from tissue; host or cells: guinea pig ileum strips
T1 sequence (P31389 whole entry): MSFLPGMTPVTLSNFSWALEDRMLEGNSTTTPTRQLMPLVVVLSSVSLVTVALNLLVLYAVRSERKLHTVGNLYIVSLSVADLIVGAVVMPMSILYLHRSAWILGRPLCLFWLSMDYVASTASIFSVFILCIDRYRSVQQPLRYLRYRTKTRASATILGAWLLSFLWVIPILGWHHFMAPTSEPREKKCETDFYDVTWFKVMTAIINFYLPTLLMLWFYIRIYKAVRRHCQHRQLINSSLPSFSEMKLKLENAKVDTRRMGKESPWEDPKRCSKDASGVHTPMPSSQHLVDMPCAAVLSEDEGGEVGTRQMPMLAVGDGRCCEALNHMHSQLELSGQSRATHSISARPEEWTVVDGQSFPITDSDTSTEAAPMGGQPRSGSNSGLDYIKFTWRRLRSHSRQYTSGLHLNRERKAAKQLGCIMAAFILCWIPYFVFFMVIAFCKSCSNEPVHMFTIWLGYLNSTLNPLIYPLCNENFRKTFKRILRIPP
Kind of test: guinea pig ileum screen (antagonism of histamine-induced contraction, pA2). As to conditions: isolated guinea pig ileum strips, histamine dose response, 20 minutes incubation; pA2 by the method of Schild (Schild plots). Format: cell-based. As to the method:
It is based upon the phenomenon that histamine causes the contraction of guinea pig ileum. Antihistamine blocks this contraction. This test may be performed in the following manner:
Strips of guinea pig ileum, 2 cm in length, were set up in an isolated organ bath in tyrode's solution which had the following composition in […] (NaCl, 136.89; KCl, 2.68; CaCl2, 1.8; MgCl2, 1.05; NaH2 PO4, 0.42; NaHCO3, […] were measured isotonically (Grass FTO3C transducer coupled with silver springs) under one gram resting tension and recorded in a Grass polygraph recorder. Cumulative histamine dose response experiments were then performed before and after treatment of tissues with test compounds (20 minutes incubation). Dose ratios were determined graphically at ED50 response levels from the histamine dose response curves, and Schild plots (Arunlakshana, O. and Schild, H. O. Some quantitative uses of drug antagonists. Br. J. Pharmacol. Chemother. 14: 48-58, 1959) were constructed to determine the pA2 values using inverse regression line analysis (Finney, D. J. Statistical methods in biological assays. Hafner Press, New York, 1964). The pA2 is defined as the negative logarithm of the molar concentratrion of antagonist which would increase the ED50 value by […]. In some experiments, pA2 values were estimated according to the method described by van Rossum (Van Rossum, J. M., Cumulative dose-response curves: Technique for the making of dose-response curves in isolated organs and the evaluation of drug parameters. Arch. Int. Pharmacodyn. Ther. 143: 299-330, 1963) which uses the following relationship: pA2=-log ([B]/(dose ratio-1)), where [B] refers to the molar concentration of antagonists used. The test compounds were prepared in ethanol (0.1% v/v).
What is called Kb is the equilibrium dissociation constant of an antagonist, usually derived from a functional assay. Take `COC(=O)COCCN1CCC(C(=O)c2nc3ccccc3n2Cc2ccc(F)cc2)CC1` [Example 2, 1-[[(4-Fluorophenyl)methyl]-1H-benzimidazol-2-yl][1-(carbomethoxymethoxyethyl)-4-piperidinyl]methanone]: the Kb was 1.78 nM.
Same read-out and setting: under `O=C(CN1CCC(C(=O)c2nc3ccccc3n2Cc2ccc(F)cc2)CC1)Nc1nnn[nH]1` [Example 9, 1-[[(4-Fluorophenyl)methyl]-1H-benzimidazol-2-yl][1-(tetrazoleacetamide)-4-piperidinyl]methanone] stands 2.4 nM; under `CN1CCC(C(=O)c2nc3ccccc3n2Cc2ccc(F)cc2)CC1` [Example 28, 1[[(4-Fluorophenyl)methyl]-1H-benzimidazol-2-yl][1-methyl-4-piperidinyl]methanone], 0.661 nM.
The same measure, in the same setting: under `CN1CCC(C(O)c2nc3ccccc3n2Cc2ccc(F)cc2)CC1` (centres unmarked) [Example 29, 1-[[(4-Fluorophenyl)methyl]-1H-benzimidazol-2-yl][1-methyl-4-piperidinyl]methanol] stands 2.34 nM.

The same test, now with this note: isolated guinea pig ileum strips, histamine dose response, 20 minutes incubation; pA2 estimated by the method of Van Rossum.
As to `CCOCCn1c(C(=O)C2CCN(C(=O)OC(C)(C)C)CC2)nc2ccccc21` [Example 1 Step a, 1-[[(2-Ethoxy)ethyl]-1H-benzimidazol-2-yl][1-(t-butyloxycarbonyl)-4-piperidinyl]methanone], the Kb was 603 nM.
The same measure, in the same setting: in the case of `CCOCCn1c(C(=O)C2CCN(CCc3ccc(OC)cc3)CC2)nc2ccccc21` [Example 1, 1-[[(2-Ethoxy)ethyl]-1H-benzimidazol-2-yl][1-[2-(4-methoxyphenyl)ethyl]-4-piperidinyl]methanone hydrochloride] it was 0.407 nM; in that of `CC(C)(C)OC(=O)N1CCC(C(=O)c2nc3ccccc3n2Cc2ccc(F)cc2)CC1` [Example 2 Step a, 1-[[(4-Fluorophenyl)methyl]-1H-benzimidazol-2-yl][1-(t-butyloxycarbonyl)-4-piperidinyl]methanone], greater than 100 nM; in that of `O=C(O)CN1CCC(C(=O)c2nc3ccccc3n2Cc2ccc(F)cc2)CC1` [Example 4, 1-[[(4-Fluorophenyl)methyl]-1H-benzimidazol-2-yl][1-(carboxymethyl)-4-piperidinyl]methanone], 2.34 nM.
Take `CCN(CC)C(=O)N1CCC(C(=O)c2nc3ccccc3n2Cc2ccc(F)cc2)CC1` [Example 6, 1-[[(4-Fluorophenyl)methyl]-1H-benzimidazol-2-yl][1-(N,N-diethylcarbamoyl)-4-piperidinyl]methanone]: the “pA2 value in the guinea pig ileum screen” value is reported as 7.7.
As to `CC(=O)N1CCC(C(=O)c2nc3ccccc3n2Cc2ccc(F)cc2)CC1` [Example 7, 1-[[(4-Fluorophenyl)methyl]-1H-benzimidazol-2-yl-][1-(acetyl)-4-piperidinyl]methanone], the Kb was greater than 100 nM.
On the same count and under the same terms, in the case of `O=C(c1nc2ccccc2n1Cc1ccc(F)cc1)C1CCN(C(=O)C(F)(F)F)CC1` [Example 8, 1-[[(4-Fluorophenyl)methyl]-1H-benzimidazol-2-yl][1-(trifluoroacetyl)-4-piperidinyl]methanone] it was 10.2 nM.

These data come from patent publication US5380731A, “Antiallergic compounds” (Merrell Dow Pharmaceuticals Inc., priority 1993, dated 1995).
